From US20030171276A1, “Preventives and remedies for chronic hepatitis” (priority 1999, published 2003) come the findings set out here.

The test system of this assay is recombinant E2 protein binding to CD81 expressed in Jurkat cells. Briefly: Inhibition of binding of recombinant E2 protein to Jurkat cells (FACScan). The assay is classed as cell-based, HCV. The settings on record: 1 μg recombinant E2 protein preincubated with 10 μL of 1 mg/mL solution, room temperature 1 hour; FIG. 14. The method, then:
An oligopeptide capable of binding to HCV E2 antigen is reacted with the HCV E2 antigen to study whether or not binding of CD81 expressed in Jurkat cells purchased from DAINIPPON PHARMACEUTICAL CO., LTD. to the HCV E2 antigen is inhibited. By the study, whether or not the selected oligopeptide inhibits adhesion of the HCV E2 antigen to CD81-positive cells can be estimated. The inhibitory activity for adhesion of CD81 to the IICV E2 antigen was assayed in accordance with the literature. The concrete description will be given hereinbelow.
The Jurkat cells were prepared in the same manner as in item (1), and suspended in WB so as to have a concentration of 4×10^6 cells/mL, to give a Jurkat cell suspension. […]
Hereinafter, in the same manner as in the item (1) above, the resulting product was reacted with an FITC-labeled anti-mouse IgG1 antibody, and thereafter the reaction mixture was suspended in 0.2 mL of a 10% neutral buffered formalin solution. As to the resulting product, E2 protein bound to Jurkat cells was analyzed by using FACScan.
One microgram of the recombinant E2 protein, and 10 μL of the TAPA148, bLF or bLF443 solution obtained in item (4) above were added to a 6 mm rounded-bottom tube and, and WB was then added thereto, to give 50 μL of a mixture. […] As to the resulting suspension, E2 protein bound to Jurkat cells was analyzed by using FACScan.

Consider “TAPA148: Human CD81-derived peptide, SEQ ID NO: 23 (TFHETLDCCGSSTLTALTTSVLKNNLCPSGSNIISNLFKTDCHQKIDDLTSGK; Synthesized peptide TAPA148 which is derived from human CD81)”, for which the “inhibitory action of binding of E2 protein to Jurkat cells” value is “inhibitory action of binding of E2 protein”.

As for “bLF443: Bovine lactoferrin-derived peptide, SEQ ID NO: 24 (LDCVLRPTEGYLAVAVVKKANEGLTWNSLKDKKSCH; Synthesized peptide bLF443 which is derived from bovine lactoferrin)”, the “inhibitory action of binding of E2 protein to Jurkat cells” value is reported as “inhibitory action of binding of the E2 protein”.
